Experimental data taken from ChEMBL document CHEMBL5154935, “Design, Synthesis, and Biological Evaluation of Novel Evodiamine Derivatives as Potential Antihepatocellular Carcinoma Agents” (J Med Chem, 2022).
Active and inactive are the calls of the source. The rule behind the calls is not given here.

Key:
[1] = test system: HepG2; experiment: Antiproliferative activity against human HepG2 cells treated for 72 hrs by MTT assay; assay type: functional, cell-based; details: HepG2, 72 h
[2] = test system: Huh-7; experiment: Antiproliferative activity against human Huh-7 cells treated for 72 hrs by MTT assay; assay type: functional, cell-based; details: Huh-7, 72 h
[3] = test system: SK-HEP1; experiment: Antiproliferative activity against human SK-HEP1 cells treated for 72 hrs by MTT assay; assay type: functional, cell-based; details: SK-HEP1, 72 h
[4] = test system: HCCLM9; experiment: Antiproliferative activity against human HCCLM9 cells treated for 72 hrs by MTT assay; assay type: functional, cell-based; details: HCCLM9, 72 h
[5] = Antiproliferative activity against human L02 cells treated for 72 hrs by MTT assay; assay type: toxicity, cell-based
[6] = biological target: T1, DNA topoisomerase 1 (Homo sapiens) (UniProt P11387); experiment: Inhibition of Top1 (unknown origin) assessed as inhibition of relaxation of supercoiled pBR322 plasmid DNA at 50 uM incubated for 25 mins by ethidium bromide staining based agarose gel electrophoresis analysis relative to control
T1 sequence (whole entry): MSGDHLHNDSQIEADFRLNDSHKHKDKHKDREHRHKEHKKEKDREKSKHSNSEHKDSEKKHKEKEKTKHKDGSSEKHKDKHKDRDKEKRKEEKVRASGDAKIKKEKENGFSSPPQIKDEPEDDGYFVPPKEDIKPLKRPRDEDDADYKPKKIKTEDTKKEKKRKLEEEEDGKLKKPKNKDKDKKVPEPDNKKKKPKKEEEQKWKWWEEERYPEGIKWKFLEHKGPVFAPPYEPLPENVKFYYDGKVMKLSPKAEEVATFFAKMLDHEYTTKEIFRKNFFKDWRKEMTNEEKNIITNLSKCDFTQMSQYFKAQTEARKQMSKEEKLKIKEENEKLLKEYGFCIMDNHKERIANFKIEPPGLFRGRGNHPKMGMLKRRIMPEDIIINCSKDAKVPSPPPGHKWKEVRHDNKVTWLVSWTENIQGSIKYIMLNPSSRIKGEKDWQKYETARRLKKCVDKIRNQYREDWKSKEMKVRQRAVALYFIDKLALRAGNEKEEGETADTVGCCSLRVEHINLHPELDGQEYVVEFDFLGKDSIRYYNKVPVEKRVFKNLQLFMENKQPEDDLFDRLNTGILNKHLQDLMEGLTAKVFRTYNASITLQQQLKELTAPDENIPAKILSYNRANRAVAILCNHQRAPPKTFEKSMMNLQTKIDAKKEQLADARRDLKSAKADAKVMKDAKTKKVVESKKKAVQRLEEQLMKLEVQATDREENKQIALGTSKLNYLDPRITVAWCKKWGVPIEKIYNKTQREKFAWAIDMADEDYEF

[7] = biological target: T1, DNA topoisomerase 1 (Homo sapiens); experiment: Inhibition of Top1 (unknown origin) assessed as inhibition of relaxation of supercoiled pBR322 plasmid DNA at 12.5 uM incubated for 25 mins by ethidium bromide staining based agarose gel electrophoresis analysis relative to control
[8] = biological target: DNA topoisomerase 2-alpha (Homo sapiens) (UniProt P11388); experiment: Inhibition of human Top2-alpha expressed in baculovirus assessed as inhibition of relaxation of supercoiled pBR322 plasmid DNA at 100 uM incubated for 30 mins in presence of ATP by ethidium bromide staining based agarose gel electrophoresis analysis relative to control
Chain of DNA topoisomerase 2-alpha (Homo sapiens) (P11388 whole entry): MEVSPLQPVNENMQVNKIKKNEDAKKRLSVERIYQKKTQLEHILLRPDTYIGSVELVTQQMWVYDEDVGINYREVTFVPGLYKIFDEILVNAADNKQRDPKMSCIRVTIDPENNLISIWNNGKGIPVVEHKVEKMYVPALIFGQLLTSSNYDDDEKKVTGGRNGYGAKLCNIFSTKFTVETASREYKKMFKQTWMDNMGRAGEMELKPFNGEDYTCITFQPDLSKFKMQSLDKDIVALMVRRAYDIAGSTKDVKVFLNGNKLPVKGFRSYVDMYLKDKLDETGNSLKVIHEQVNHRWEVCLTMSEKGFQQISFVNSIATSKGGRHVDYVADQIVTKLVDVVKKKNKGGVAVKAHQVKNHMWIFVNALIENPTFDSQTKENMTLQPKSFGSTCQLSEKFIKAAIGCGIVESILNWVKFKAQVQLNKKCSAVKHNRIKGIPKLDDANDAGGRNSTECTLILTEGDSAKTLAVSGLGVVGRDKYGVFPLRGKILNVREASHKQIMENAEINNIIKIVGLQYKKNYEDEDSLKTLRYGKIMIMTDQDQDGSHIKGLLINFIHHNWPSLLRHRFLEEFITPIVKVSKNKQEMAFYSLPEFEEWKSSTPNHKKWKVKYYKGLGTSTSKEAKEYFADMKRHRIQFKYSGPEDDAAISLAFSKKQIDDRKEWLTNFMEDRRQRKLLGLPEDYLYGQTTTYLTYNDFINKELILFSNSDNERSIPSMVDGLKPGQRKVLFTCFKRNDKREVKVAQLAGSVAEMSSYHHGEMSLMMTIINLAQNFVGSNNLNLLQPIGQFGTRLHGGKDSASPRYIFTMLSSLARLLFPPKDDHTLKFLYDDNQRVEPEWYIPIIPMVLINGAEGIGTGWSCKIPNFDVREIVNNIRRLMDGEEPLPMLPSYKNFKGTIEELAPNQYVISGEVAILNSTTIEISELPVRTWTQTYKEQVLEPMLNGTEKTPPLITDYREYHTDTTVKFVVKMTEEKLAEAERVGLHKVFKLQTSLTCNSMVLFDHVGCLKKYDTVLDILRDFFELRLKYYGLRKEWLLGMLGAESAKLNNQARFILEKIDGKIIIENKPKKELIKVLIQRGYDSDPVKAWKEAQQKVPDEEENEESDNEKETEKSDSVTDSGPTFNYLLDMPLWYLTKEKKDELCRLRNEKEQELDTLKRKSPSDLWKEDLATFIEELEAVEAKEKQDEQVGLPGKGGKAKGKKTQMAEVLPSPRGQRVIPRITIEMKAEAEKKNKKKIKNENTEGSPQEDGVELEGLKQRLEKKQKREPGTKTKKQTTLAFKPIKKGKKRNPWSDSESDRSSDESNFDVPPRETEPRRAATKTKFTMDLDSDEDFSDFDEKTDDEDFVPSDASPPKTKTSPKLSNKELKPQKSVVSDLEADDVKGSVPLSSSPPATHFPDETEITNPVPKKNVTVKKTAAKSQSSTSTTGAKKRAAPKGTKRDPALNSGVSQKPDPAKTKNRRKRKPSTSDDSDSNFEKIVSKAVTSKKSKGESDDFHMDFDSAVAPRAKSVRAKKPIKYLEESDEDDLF

[9] = test system: SK-HEP1; experiment: Induction of cell cycle arrest in human SK-Hep1 cells assessed as accumulation at S phase at 80 nM treated for 24 hrs by PI staining based flow cytometry (reference value: 24.98 %); assay type: functional
[10] = test system: Huh-7; experiment: Induction of cell cycle arrest in human Huh-7 cells assessed as accumulation at G1 phase at 80 nM treated for 24 hrs by PI staining based flow cytometry (reference value: 60.77 %); assay type: functional
[11] = test system: Huh-7; experiment: Induction of cell cycle arrest in human Huh-7 cells assessed as accumulation at G2 phase at 80 nM treated for 24 hrs by PI staining based flow cytometry (reference value: 15.90 %); assay type: functional
[12] = test system: Huh-7; experiment: Induction of cell cycle arrest in human Huh-7 cells assessed as accumulation at S phase at 80 nM treated for 24 hrs by PI staining based flow cytometry (reference value: 23.33 %); assay type: functional
[13] = test system: SK-HEP1; experiment: Induction of cell cycle arrest in human SK-Hep1 cells assessed as accumulation at G1 phase at 80 nM treated for 24 hrs by PI staining based flow cytometry (reference value: 58.47 %); assay type: functional
[14] = test system: SK-HEP1; experiment: Induction of cell cycle arrest in human SK-Hep1 cells assessed as accumulation at G2 phase at 80 nM treated for 24 hrs by PI staining based flow cytometry (reference value: 16.55 %); assay type: functional
[15] = test system: Huh-7; experiment: Induction of apoptosis in human Huh-7 cells assessed as viable cells at 80 nM incubated for 24 hrs by annexin V-FITC/PI staining flow cytometry (reference value: 97.3 %); assay type: functional; details: read-out: Activity
[16] = test system: Huh-7; experiment: Induction of apoptosis in human Huh-7 cells assessed as early apoptotic cells at 80 nM incubated for 24 hrs by annexin V-FITC/PI staining flow cytometry (reference value: 0.33 %); assay type: functional
[17] = test system: Huh-7; experiment: Induction of apoptosis in human Huh-7 cells assessed as late apoptotic cells at 80 nM incubated for 24 hrs by annexin V-FITC/PI staining flow cytometry (reference value: 1.33 %); assay type: functional
[18] = test system: Huh-7; experiment: Induction of apoptosis in human Huh-7 cells assessed as necrotic cells at 80 nM incubated for 24 hrs by annexin V-FITC/PI staining flow cytometry (reference value: 1.08 %); assay type: functional
[19] = test system: SK-HEP1; experiment: Induction of apoptosis in human SK-Hep1 cells assessed as viable cells at 80 nM incubated for 24 hrs by annexin V-FITC/PI staining flow cytometry (reference value: 97.8 %); assay type: functional; details: read-out: Activity
[20] = test system: SK-HEP1; experiment: Induction of apoptosis in human SK-Hep1 cells assessed as early apoptotic cells at 80 nM incubated for 24 hrs by annexin V-FITC/PI staining flow cytometry (reference value: 0.30 %); assay type: functional
[21] = test system: SK-HEP1; experiment: Induction of apoptosis in human SK-Hep1 cells assessed as late apoptotic cells at 80 nM incubated for 24 hrs by annexin V-FITC/PI staining flow cytometry (reference value: 1.13 %); assay type: functional
[22] = test system: SK-HEP1; experiment: Induction of apoptosis in human SK-Hep1 cells assessed as necrotic cells at 80 nM incubated for 24 hrs by annexin V-FITC/PI staining flow cytometry (reference value: 0.73 %); assay type: functional
[23] = Induction of apoptosis in rat HSC-T6 cells assessed as viable cells at 80 nM pretreated with TGFbeta-1 for 1 day followed by compound addition and measured after 24 hrs by flow cytometry (reference value: 97.5 %); assay type: functional; details: read-out: Activity
[24] = Induction of apoptosis in rat HSC-T6 cells assessed as early apoptotic cells at 80 nM pretreated with TGFbeta-1 for 1 day followed by compound addition and measured after 24 hrs by flow cytometry (reference value: 0.17 %); assay type: functional
[25] = Induction of apoptosis in rat HSC-T6 cells assessed as late apoptotic cells at 80 nM pretreated with TGFbeta-1 for 1 day followed by compound addition and measured after 24 hrs by flow cytometry (reference value: 1.76 %); assay type: functional
[26] = Induction of apoptosis in rat HSC-T6 cells assessed as necrotic cells at 80 nM pretreated with TGFbeta-1 for 1 day followed by compound addition and measured after 24 hrs by flow cytometry (reference value: 0.56 %); assay type: functional
[27] = Toxicity in BALB/c mouse xenografted with human Huh-7 cells assessed as reduction in WBC levels at 10 mg/kg, ip qd for 11 days and measured on day 11; assay type: organism-based; details: in vivo, 264 h, time 11 day
[28] = test system: SMMC-7721; experiment: Antiproliferative activity against human SMMC-7721 cells treated for 72 hrs by MTT assay; assay type: functional, cell-based; details: SMMC-7721, 72 h
[29] = test system: HSC-T6; experiment: Antiproliferative activity against TGF-beta-1-stimulated rat HSC-T6 cells assessed as suppression of cell proliferation at 6.67 to 60 uM preincubated with TGFbeta-1 for 1 day followed by compound addition and measured after 48 hrs; assay type: functional, cell-based; details: dose 6.67-60 µM
[30] = test system: Huh-7; experiment: Antitumor activity against human Huh-7 cells xenografted in BALB/c mouse assessed as tumor growth inhibition at 10 mg/kg, ip qd for 11 days and measured every 2 days relative to control; assay type: functional; details: Huh-7, 264 h, time 11 day, read-out: TGI
[31] = test system: Huh-7; experiment: Antitumor activity against human Huh-7 cells xenografted in BALB/c mouse assessed as reduction in neo-vascularisation at 10 mg/kg, ip qd for 11 days and measured after 12 days by hematoxylin and eosin staining based assay; assay type: functional, organism-based; details: time 12.0 day
[32] = Toxicity in BALB/c mouse xenografted with human Huh-7 cells assessed as histopathological change in liver at 10 mg/kg, ip qd for 11 days and measured after 12 days by hematoxylin and eosin staining based assay; assay type: organism-based; details: in vivo, 288 h, time 12 day
[33] = Toxicity in BALB/c mouse xenografted with human Huh-7 cells assessed as histopathological change in kidney at 10 mg/kg, ip qd for 11 days and measured after 12 days by hematoxylin and eosin staining based assay; assay type: organism-based; details: in vivo, 288 h, time 12 day
[34] = Toxicity in BALB/c mouse xenografted with human Huh-7 cells assessed as histopathological change in heart at 10 mg/kg, ip qd for 11 days and measured after 12 days by hematoxylin and eosin staining based assay; assay type: organism-based; details: in vivo, 288 h, time 12 day
[35] = Toxicity in BALB/c mouse xenografted with human Huh-7 cells assessed as histopathological change in lung at 10 mg/kg, ip qd for 11 days and measured after 12 days by hematoxylin and eosin staining based assay; assay type: organism-based; details: in vivo, 288 h, time 12 day
[36] = Toxicity in BALB/c mouse xenografted with human Huh-7 cells assessed as histopathological change in spleen at 10 mg/kg, ip qd for 11 days and measured after 12 days by hematoxylin and eosin staining based assay; assay type: organism-based; details: in vivo, 288 h, time 12 day

Row | SMILES | IC50 [1] | IC50 [2] | IC50 [3] | IC50 [4] | IC50 at 72 h [5] | inhibition [6] | inhibition [7] | inhibition [8] | Activity [9] | Activity [10] | Activity [11] | Activity [12] | Activity [13] | Activity [14] | viability at 0.08 µM [15] | Activity [16] | Activity [17] | Activity [18] | viability at 0.08 µM [19] | IC50 [28] | also measured
1 | CN1c2ccccc2C(=O)N2CCc3c([nH]c4ccccc34)C21 (centres undefined) | 2670 nM | 2180 nM | 2920 nM | 9270 nM | 3950 nM | 63.4% | 3.67% | 48% | 36% | 60.65% | 15.93% | 23.42% | 60.43% | 3.57% | 92% | 0.57% | 5.83% | 1.64% | 85% | 3040 nM | Activity [20]: 0.27%; Activity [21]: 2.79%; Activity [22]: 1.01%; viability at 0.08 µM [23]: 94.4%; Activity [24]: 0.27%; Activity [25]: 4.44%; Activity [26]: 0.9%; Activity [27]: Toxic
2 | O=C1c2cc(F)cc(F)c2N(c2cccc(F)c2)C2c3[nH]c4ccc(Cl)cc4c3CCN12 (centres undefined) | 680 nM | 290 nM | 110 nM | 140 nM | 1370 nM | 90.1% | 75.4% | 65.2% |  |  |  |  |  |  |  |  |  |  |  | 770 nM | 
3 | CNC(=O)c1cc(Oc2ccc(NC(=O)Nc3ccc(Cl)c(C(F)(F)F)c3)cc2)ccn1 [SORAFENIB] | 2100 nM | 2600 nM | 1980 nM | 3150 nM | 5980 nM |  |  |  | 34.1% | 53% | 9.16% | 37.84% | 60.47% | 5.43% | 94.6% | 0.23% | 3.94% | 1.18% | 94.1% | 2370 nM | Activity [20]: 1.01%; Activity [21]: 3.5%; Activity [22]: 1.32%; Activity [29]: Active; viability at 0.08 µM [23]: 91.5%; Activity [24]: 0.16%; Activity [25]: 7.47%; Activity [26]: 0.85%; inhibition in vivo at 10 mg/kg [30]: 46.3%; Activity [31]: Active; Activity [32]: Non-Toxic; Activity [33]: Non-Toxic; Activity [34]: Non-Toxic; Activity [35]: Non-Toxic; Activity [36]: Non-Toxic
